Measured values as given in PubChem BioAssay (NCI).
Where “and” joins values, the source holds several entries; their conditions need not be identical. Equal values may be shown once.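 Tested at 5 concentrations; 48 h exposure; 96-well plates; endpoints linearly interpolated, else capped at highest concentration. GI50 = concentration required for 50% inhibition of growth. The concentration for full growth arrest is given as TGI.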

Tests used:
Experiment in all cases: DTP human tumour cell line panel, 48 h
COLO 205 colon = test system: COLO 205 colon
MDA-MB-231 breast = test system: MDA-MB-231 breast
T-47D breast = test system: T-47D breast
HS 578T breast = test system: HS 578T breast
SF-539 CNS = test system: SF-539 CNS
SK-OV-3 ovarian = test system: SK-OV-3 ovarian
A549 NSCLC = test system: A549 NSCLC
OVCAR-5 ovarian = test system: OVCAR-5 ovarian
BT-549 breast = test system: BT-549 breast
MOLT-4 leukemia = test system: MOLT-4 leukemia

| Structure (SMILES) | TGI (COLO 205 colon) | TGI (MDA-MB-231 breast) | TGI (T-47D breast) | TGI (HS 578T breast) | TGI (SF-539 CNS) | TGI (SK-OV-3 ovarian) | TGI (A549 NSCLC) | TGI (OVCAR-5 ovarian) | TGI (BT-549 breast) | TGI (MOLT-4 leukemia) | GI50 (HS 578T breast) | GI50 (MOLT-4 leukemia) | GI50 (SF-539 CNS) | GI50 (OVCAR-5 ovarian) | GI50 (COLO 205 colon) | GI50 (MDA-MB-231 breast) | GI50 (T-47D breast) | GI50 (SK-OV-3 ovarian) | GI50 (A549 NSCLC) | GI50 (BT-549 breast) |
| --- | --- | --- | --- | --- | --- | --- | --- | --- | --- | --- | --- | --- | --- | --- | --- | --- | --- | --- | --- | --- |
| O=C1CSC2(CCN(CCCN3c4ccccc4Sc4ccc(Cl)cc43)CC2)N1 | 22.5 µM | 18.8 µM | 15.6 µM | 51.9 µM | 26.4 µM | 21.5 µM | 23.4 µM | 24.3 µM | 26.1 µM | – | – | – | – | – | – | – | – | – | – | – |
| O=C(CSC1=NCCN1)c1ccccc1 | > 100 µM | > 100 µM | > 100 µM | > 100 µM | > 100 µM | > 100 µM | > 100 µM | > 100 µM | > 100 µM | > 100 µM | – | – | – | – | – | – | – | – | – | – |
| COC1C(O)=C2C(=O)OC(C)(O)/C=C/C=C\C=C/C=C/C(c3ccccc3)NC(=O)/C=C/C=C/C=C/C=C/C2(C)C1O (stereo unspecified) | 0.0166 µM | 0.105 µM and 0.0133 µM | 0.0707 µM | 0.192 µM and 0.246 µM | 0.112 µM and 0.165 µM | 0.134 µM | 0.0253 µM | 0.566 µM and 0.224 µM | 0.168 µM | – | 0.0115 µM | 0.0697 µM | 0.0307 µM | 0.0649 µM | – | – | – | – | – | – |
| CC1(C)N=C(N)N=C(N)N1c1cccc(CSc2ccccc2)c1 | 29.1 µM | > 100 µM | > 100 µM | 68 µM | > 100 µM | > 100 µM | > 100 µM | > 100 µM | > 100 µM | > 100 µM | – | – | – | – | – | – | – | – | – | – |
| COc1ccc2nc3c([N+](=O)[O-])ccc4c3c(c2c1)NCCN4C | 2.54 µM | 3.01 µM | 7.73 µM | 5.21 µM | 2.62 µM | 9.23 µM | 2.57 µM | 23 µM | 11.4 µM | 27 µM | – | – | – | – | – | – | – | – | – | – |
| Cc1c2cc[n+](C)cc2c(C)c2c1[nH]c1ccccc12 | 4.57 µM and 3.37 µM | – | 0.832 µM | – | 2.85 µM and 2.93 µM | 64.7 µM and 64.2 µM | 5.55 µM and 8.83 µM | 56.6 µM and 61.1 µM | 8.07 µM | 56.6 µM and 30.2 µM | – | – | – | – | – | – | – | – | – | – |
| CC(NCCS(=O)(=O)O)C(=O)O (stereo unspecified) | > 100 µM | – | – | – | > 100 µM | > 100 µM | > 100 µM | > 100 µM | – | > 100 µM | – | – | – | – | – | – | – | – | – | – |
| CCCCCCCCCC[C@@H](O)[C@@H]1CC[C@@H]([C@@H]2CC[C@@H]([C@@H](O)CCCCCCCCCCC(O)CC3=CC(C)OC3=O)O2)O1 (stereo partly specified) | > 10 µM | > 10 µM | > 10 µM | > 10 µM | > 10 µM | > 10 µM | > 10 µM | > 10 µM | – | > 10 µM | – | – | – | – | – | – | – | – | – | – |
| c1ccc(N=NNNc2ccc(-c3nc4ccccc4[nH]3)cc2)cc1 | > 100 µM | > 100 µM | 39.1 µM | 89.1 µM | > 100 µM | > 100 µM | > 100 µM | > 100 µM | 76.8 µM | 36.8 µM | – | – | – | – | – | – | – | – | – | – |
| CN(C)Cc1cc(C(=O)O)cc(CN(C)C)c1O | > 100 µM | > 100 µM | > 100 µM | > 100 µM | – | > 100 µM | > 100 µM | > 100 µM | > 100 µM | – | – | – | – | – | – | – | – | – | – | – |
| COc1ccc(-c2cn3ccnc3c(-c3ccc4ncn(C5CCCCC5)c4c3)n2)cc1 | 14.4 µM | > 100 µM | 4.5 µM | 49.3 µM | – | 7.64 µM | > 100 µM | – | 3.91 µM | > 100 µM | 1.16 µM | 2.66 µM | – | – | 2.22 µM | 2.83 µM | 0.761 µM | 0.508 µM | 1.83 µM | 0.41 µM |
| C=C[C@H]1CN2CC[C@H]1C[C@@H]2[C@@H](O)c1ccnc2ccccc12 | > 100 µM | > 100 µM | > 100 µM | 8.28 µM | > 100 µM | > 100 µM | > 100 µM | > 100 µM | > 100 µM | > 100 µM | – | – | – | – | – | – | – | – | – | – |
| O=C(O)C(Cc1cccs1)C(=O)O | > 100 µM | > 100 µM | > 100 µM | > 100 µM | – | > 100 µM | > 100 µM | > 100 µM | > 100 µM | – | – | – | – | – | – | – | – | – | – | – |
| Nc1nc(N)c2ncn(CC(CO)CC(c3ccccc3)P(=O)(O)O)c2n1 (stereo unspecified) | > 100 µM | – | – | – | > 100 µM | > 100 µM | > 100 µM | > 100 µM | – | > 100 µM | – | – | – | – | – | – | – | – | – | – |
| CN(C)c1ccc(C(c2ccc(N(C)C)cc2)c2ccc([N+](=O)[O-])cc2)cc1 | > 100 µM | > 100 µM | > 100 µM | > 100 µM | > 100 µM | > 100 µM | > 100 µM | > 100 µM | > 100 µM | > 100 µM | – | – | – | – | – | – | – | – | – | – |
| N#CC(c1ccccc1)c1cccc2ccccc12 (stereo unspecified) | > 100 µM | > 100 µM | > 100 µM | > 100 µM | > 100 µM | – | 65.1 µM | > 100 µM | – | 57.6 µM | – | – | – | – | – | – | – | – | – | – |
